{
  "source": "patent US20080026996A1",
  "about": "“Selective Vpac2 Receptor Reptide Agonists” (ELI LILLY AND COMPANY, priority 2004, published 2008)",
  "key": {"human VPAC2 [1]": {"target": "T1, human VPAC2 (Homo sapiens, UniProt P41587)", "T1 construct": "expressed in transfected cells", "T1 sequence (P41587 24-438)": "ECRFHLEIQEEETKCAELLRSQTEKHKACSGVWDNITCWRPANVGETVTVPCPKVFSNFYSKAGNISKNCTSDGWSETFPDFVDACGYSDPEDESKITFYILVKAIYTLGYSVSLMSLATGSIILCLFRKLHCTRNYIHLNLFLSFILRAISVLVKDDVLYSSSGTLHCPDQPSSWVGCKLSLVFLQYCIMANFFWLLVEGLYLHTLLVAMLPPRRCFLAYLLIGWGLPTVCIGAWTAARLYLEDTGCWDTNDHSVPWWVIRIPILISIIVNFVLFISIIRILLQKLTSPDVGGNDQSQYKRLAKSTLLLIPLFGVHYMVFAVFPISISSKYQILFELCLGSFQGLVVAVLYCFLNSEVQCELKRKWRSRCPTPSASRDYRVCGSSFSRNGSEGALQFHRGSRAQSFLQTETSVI", "assay": "Alpha screen cAMP in vitro potency, human VPAC2 receptor", "type": "cell-based", "conditions": "cAMP generation; single result from two analyses performed in a single run; read-out: Human VPAC2 Receptor: Alpha Screen EC50", "experimental": "Alpha screen: Cells are washed in the culture flask once with PBS. Then, the cells are rinsed with enzyme free dissociation buffer. The dissociated cells are removed. The cells are then spun down and washed in stimulation buffer. For each data point, 50,000 cells suspended in stimulation buffer are used. To this buffer, Alpha screen acceptor beads are added along with the stimuli. This mixture is incubated for 60 minutes. Lysis buffer and Alpha screen donor beads are added and are incubated for 60 to 120 minutes. The Alpha screen signal (indicative of intracellular cAMP levels) is read in a suitable instrument (e.g. AlphaQuest from Perkin-Elmer). Steps including Alpha screen donor and acceptor beads are performed in reduced light."}, "human PAC1": {"target": "T2, human PAC1 (Homo sapiens, UniProt P41586)", "T2 sequence (P41586 21-468)": "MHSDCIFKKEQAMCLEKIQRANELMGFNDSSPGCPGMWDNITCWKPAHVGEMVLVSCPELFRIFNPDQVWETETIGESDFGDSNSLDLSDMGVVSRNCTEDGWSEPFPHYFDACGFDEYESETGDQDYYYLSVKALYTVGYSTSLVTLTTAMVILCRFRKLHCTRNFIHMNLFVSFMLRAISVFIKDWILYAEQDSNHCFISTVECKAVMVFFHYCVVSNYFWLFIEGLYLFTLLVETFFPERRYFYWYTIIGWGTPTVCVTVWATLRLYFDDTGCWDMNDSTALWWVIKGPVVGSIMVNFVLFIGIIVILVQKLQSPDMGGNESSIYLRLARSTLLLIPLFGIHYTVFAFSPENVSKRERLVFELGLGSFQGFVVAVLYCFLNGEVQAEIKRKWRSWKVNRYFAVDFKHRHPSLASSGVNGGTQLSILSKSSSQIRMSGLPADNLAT", "assay": "Filter binding assay, membranes of cells transiently transfected with human PAC1, 125I-labeled PACAP-27 tracer (Table 2)", "parameters": "expressed in transfected cells", "conditions": "read-out: Human PAC1 Receptor Binding", "experimental": "(§1) For this assay, the solutions and equipment include:\n(§2) Presoak solution: 0.5% Polyethyleneamine in Aqua dest.\n(§3) Buffer for flushing filter plates: 25 mM HEPES pH 7.4\n(§4) Blocking buffer: 25 mM HEPES pH 7.4; 0.2% protease free BSA\n(§5) Assay buffer: 25 mM HEPES pH 7.4; 0.5% protease free BSA\n(§6) Dilution and assay plate: PS-Microplate, U form\n(§7) Filtration Plate Multiscreen FB Opaque Plate; […] Type B Glasfiber filter\n(§8) In order to prepare the filter plates, aspirate the presoak solution by vacuum filtration. Flush the plates twice with 200 μL flush buffer. Add 200 μL blocking buffer to the filter plate. The filter plate is then incubated […] for 1 hour at room temperature.\n(§9) Fill the assay plate with 25 μL assay buffer, 25 μL membranes (2.5 μg) suspended in assay buffer, 25 μL compound (agonist) in assay buffer, and 25 μL tracer (about 40000 cpm) in assay buffer. Incubate the filled plate for 1 hour with shaking.\n(§10) Conduct the transfer from assay plate to filter plate. Aspirate the blocking buffer by vacuum filtration and wash two times with flush buffer. Transfer 90 μL from the assay plate to the filter plate. Aspirate the 90 μL transferred from assay plate and wash three times with 200 μL flush buffer. Remove the plastic support. Dry for 1 hour at 60° C. Add 30 μL Microscint. Perform the count."}, "human VPAC2 [2]": {"target": "T1, human VPAC2", "assay": "Filter binding assay, membranes of stable VPAC2 cell line, 125I-labeled VIP tracer (Table 2)", "conditions": "read-out: Human VPAC2 Receptor Binding", "experimental": "as §1, §2, §3, §4, §5, §6, §7, §8, §9, §10"}, "human VPAC1": {"target": "T3, human VPAC1 (Homo sapiens, UniProt P32241)", "T3 sequence (P32241 31-457)": "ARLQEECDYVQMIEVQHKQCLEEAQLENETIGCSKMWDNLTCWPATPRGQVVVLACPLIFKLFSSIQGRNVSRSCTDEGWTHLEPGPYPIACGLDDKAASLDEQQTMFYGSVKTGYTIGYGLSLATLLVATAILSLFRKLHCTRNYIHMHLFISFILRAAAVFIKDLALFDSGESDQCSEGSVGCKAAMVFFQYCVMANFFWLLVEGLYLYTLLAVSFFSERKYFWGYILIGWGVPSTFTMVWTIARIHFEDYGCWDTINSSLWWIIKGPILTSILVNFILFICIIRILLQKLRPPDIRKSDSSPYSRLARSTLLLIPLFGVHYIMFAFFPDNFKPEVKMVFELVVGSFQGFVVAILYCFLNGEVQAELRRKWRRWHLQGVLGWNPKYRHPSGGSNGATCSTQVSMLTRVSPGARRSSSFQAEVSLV", "assay": "Filter binding assay, membranes of cells transiently transfected with human VPAC1, 125I-labeled VIP tracer (Table 2)", "parameters": "expressed in transfected cells", "conditions": "read-out: Human VPAC1 Receptor Binding", "experimental": "as §1, §2, §3, §4, §5, §6, §7, §8, §9, §10"}},
  "note": "Where a SMILES comes first, the peptide text is derived from it. The star is where a group is joined. Hexanoyl = CCCCCC(=O)*",
  "data": [
    {"smiles": "CC[C@H](C)[C@H](NC(=O)[C@H](CO)NC(=O)[C@H](CCC(N)=O)NC(=O)[C@H](CC(C)C)NC(=O)[C@H](Cc1ccc(O)cc1)NC(=O)[C@H](CCCCN)NC(=O)[C@H](CCCCN)NC(=O)[C@H](C)NC(=O)[C@H](C)NC(=O)[C@@H](NC(=O)[C@H](CCC(N)=O)NC(=O)[C@H](CCCCN)NC(=O)[C@H](CCCNC(=N)N)NC(=O)[C@H](CC(C)C)NC(=O)[C@H](CCCNC(=N)N)NC(=O)[C@@H](NC(=O)[C@H](Cc1ccc(O)cc1)NC(=O)[C@H](CCC(N)=O)NC(=O)[C@H](CC(=O)O)NC(=O)[C@@H](NC(=O)[C@H](Cc1ccccc1)NC(=O)[C@@H](NC(=O)[C@H](C)NC(=O)[C@H](CC(=O)O)NC(=O)[C@H](CO)NC(=O)[C@H](Cc1c[nH]cn1)NC(=O)[C@@H](N)CCSC)C(C)C)[C@@H](C)O)[C@@H](C)O)C(C)C)C(=O)N[C@@H](CCCCN)C(=O)N[C@@H](CCC(N)=O)C(=O)N[C@@H](CCCCN)C(=O)N[C@@H](CCCNC(=N)N)C(=O)N[C@@H](Cc1ccc(O)cc1)C(=O)NCC(=O)NCC(=O)N1CCC[C@H]1C(=O)N[C@@H](CO)C(=O)N[C@@H](CO)C(=O)NCC(=O)N[C@@H](C)C(=O)N1CCC[C@H]1C(=O)N1CCC[C@H]1C(=O)N1CCC[C@H]1C(=O)N[C@@H](CO)C(=O)O", "note": "[Agonist P100]", "values": [
      {"measurement": "EC50", "setting": "human VPAC2 [1]", "result": 0.28, "unit": "nM"},
      {"measurement": "IC50", "setting": "human PAC1", "result": 187, "unit": "nM"},
      {"measurement": "IC50", "setting": "human VPAC2 [2]", "result": 0.4, "unit": "nM"},
      {"measurement": "IC50", "setting": "human VPAC1", "result": 321, "unit": "nM"}
    ]},
    {"smiles": "CCCCCC(=O)N[C@@H](Cc1c[nH]cn1)C(=O)N[C@@H](CO)C(=O)N[C@@H](CC(=O)O)C(=O)N[C@@H](C)C(=O)N[C@H](C(=O)N[C@@H](Cc1ccccc1)C(=O)N[C@H](C(=O)N[C@@H](CC(=O)O)C(=O)N[C@@H](CC(N)=O)C(=O)N[C@@H](Cc1ccc(O)cc1)C(=O)N[C@H](C(=O)N[C@@H](CCCNC(=N)N)C(=O)N[C@@H](CC(C)C)C(=O)N[C@@H](CCCNC(=N)N)C(=O)N[C@@H](CCCCN)C(=O)N[C@@H](CCC(N)=O)C(=O)N[C@@H](CCSC)C(=O)N[C@@H](C)C(=O)N[C@@H](C)C(=O)N[C@@H](CCC(N)=O)C(=O)N[C@@H](CCCCN)C(=O)N[C@@H](Cc1ccc(O)cc1)C(=O)N[C@@H](CC(C)C)C(=O)N[C@@H](CC(N)=O)C(=O)N[C@@H](CCC(N)=O)C(=O)N[C@@H](CC(C)C)C(=O)N[C@@H](CCCCN)C(=O)N[C@@H](CCCCN)C(=O)NCC(=O)NCC(=O)N1CCC[C@H]1C(=O)N[C@@H](CO)C(=O)N[C@@H](CO)C(=O)NCC(=O)N[C@@H](C)C(=O)N1CCC[C@H]1C(=O)N1CCC[C@H]1C(=O)N1CCC[C@H]1C(=O)N[C@@H](CO)C(=O)O)[C@@H](C)O)[C@@H](C)O)C(C)C", "note": "[Agonist P143] (Hexanoyl-HSDAVFTDNYTRLRKQMAAQKYLNQLKKGGPSSGAPPPS-OH; C-terminus assumed)", "values": [
      {"measurement": "EC50", "setting": "human VPAC2 [1]", "result": 0.1, "unit": "nM"},
      {"measurement": "IC50", "setting": "human PAC1", "result": 1080, "unit": "nM"},
      {"measurement": "IC50", "setting": "human VPAC2 [2]", "result": 0.5, "unit": "nM"},
      {"measurement": "IC50", "setting": "human VPAC1", "result": 605, "unit": "nM"}
    ]},
    {"smiles": "CCCCCC(=O)N[C@@H](Cc1c[nH]cn1)C(=O)N[C@@H](CO)C(=O)N[C@@H](CC(=O)O)C(=O)N[C@@H](C)C(=O)N[C@H](C(=O)N[C@@H](Cc1ccccc1)C(=O)N[C@H](C(=O)N[C@@H](CC(=O)O)C(=O)N[C@@H](CC(N)=O)C(=O)N[C@@H](Cc1ccc(O)cc1)C(=O)N[C@H](C(=O)N[C@@H](CCCNC(=N)N)C(=O)N[C@@H](CC(C)C)C(=O)N[C@@H](CCCNC(=N)N)C(=O)N[C@@H](CCCCN)C(=O)N[C@@H](CCC(N)=O)C(=O)N[C@H](C(=O)N[C@@H](C)C(=O)N[C@@H](C)C(=O)N[C@@H](CCC(N)=O)C(=O)N[C@@H](CCCCN)C(=O)N[C@@H](Cc1ccc(O)cc1)C(=O)N[C@@H](CC(C)C)C(=O)N[C@@H](CC(N)=O)C(=O)N[C@@H](CCC(N)=O)C(=O)N[C@@H](CC(C)C)C(=O)N[C@@H](CCCCN)C(=O)N[C@@H](CCCCN)C(=O)NCC(=O)NCC(=O)N1CCC[C@H]1C(=O)N[C@@H](CO)C(=O)N[C@@H](CO)C(=O)NCC(=O)N[C@@H](C)C(=O)N1CCC[C@H]1C(=O)N1CCC[C@H]1C(=O)N1CCC[C@H]1C(=O)N[C@@H](CO)C(=O)O)C(C)C)[C@@H](C)O)[C@@H](C)O)C(C)C", "note": "[Agonist P144] (Hexanoyl-HSDAVFTDNYTRLRKQVAAQKYLNQLKKGGPSSGAPPPS-OH; C-terminus assumed)", "values": [
      {"measurement": "EC50", "setting": "human VPAC2 [1]", "result": 0.32, "unit": "nM"},
      {"measurement": "IC50", "setting": "human PAC1", "result": 1180, "unit": "nM"},
      {"measurement": "IC50", "setting": "human VPAC2 [2]", "result": 0.57, "unit": "nM"},
      {"measurement": "IC50", "setting": "human VPAC1", "result": 4.43, "unit": "nM"}
    ]},
    {"smiles": "CCCCCC(=O)N[C@@H](Cc1c[nH]cn1)C(=O)N[C@@H](CO)C(=O)N[C@@H](CC(=O)O)C(=O)N[C@@H](C)C(=O)N[C@H](C(=O)N[C@@H](Cc1ccccc1)C(=O)N[C@H](C(=O)N[C@@H](CC(=O)O)C(=O)N[C@@H](CC(N)=O)C(=O)N[C@@H](Cc1ccc(O)cc1)C(=O)N[C@H](C(=O)N[C@@H](CCCNC(=N)N)C(=O)N[C@@H](CC(C)C)C(=O)N[C@@H](CCCNC(=N)N)C(=O)N[C@@H](CCCCN)C(=O)N[C@@H](CCC(N)=O)C(=O)N[C@H](C(=O)N[C@@H](C)C(=O)N[C@@H](C)C(=O)N[C@@H](CCCCN)C(=O)N[C@@H](CCCCN)C(=O)N[C@@H](Cc1ccc(O)cc1)C(=O)N[C@@H](CC(C)C)C(=O)N[C@@H](CCC(N)=O)C(=O)N[C@@H](CO)C(=O)N[C@H](C(=O)N[C@@H](CCCCN)C(=O)N[C@@H](CC(N)=O)C(=O)NCC(=O)NCC(=O)N1CCC[C@H]1C(=O)N[C@@H](CO)C(=O)N[C@@H](CO)C(=O)NCC(=O)N[C@@H](C)C(=O)N1CCC[C@H]1C(=O)N1CCC[C@H]1C(=O)N1CCC[C@H]1C(=O)N[C@@H](CO)C(=O)O)[C@@H](C)CC)C(C)C)[C@@H](C)O)[C@@H](C)O)C(C)C", "note": "[Agonist P154] (Hexanoyl-HSDAVFTDNYTRLRKQVAAKKYLQSIKNGGPSSGAPPPS-OH; C-terminus assumed)", "values": [
      {"measurement": "EC50", "setting": "human VPAC2 [1]", "result": 0.18, "unit": "nM"},
      {"measurement": "IC50", "setting": "human PAC1", "result": 1960, "unit": "nM"},
      {"measurement": "IC50", "setting": "human VPAC2 [2]", "result": 0.31, "unit": "nM"},
      {"measurement": "IC50", "setting": "human VPAC1", "result": 141, "unit": "nM"}
    ]}
  ]
}
